Assay results published in US20180170903A1, “PYRIDIN-3-YL ACETIC ACID DERIVATIVES AS INHIBITORS OF HUMAN IMMUNODEFICIENCY VIRUS REPLICATION” (ViiV HEALTHCARE UK (NO.5) LIMITED, priority 2015, published 2018).
Where two headings read alike, the source gives them in different places.

Test system: NL-RLuc virus (recombinant HIV NL4-3 proviral clone with Renilla Luciferase) in MT-2 cells
Assay: Inhibition of HIV Replication (NL-RLuc luciferase reporter virus, MT-2 cells)
Assay type: cell-based
Conditions: MT2, 120 h
Source text: Inhibition of HIV Replication:
A recombinant NL-RLuc proviral clone was constructed in which a section of the nef gene from NL4-3 was replaced with the Renilla Luciferase gene. This virus is fully infectious and can undergo multiple cycles of replication in cell culture. In addition, the luciferous reporter provides a simple and easy method for quantitating the extent of virus growth and consequently, the antiviral activity of test compounds. The plasmid pNLRLuc contains the proviral NL-Rluc DNA cloned into pUC 18 at the PvuII site. The NL-RLuc virus was prepared by transfection of 293T cells with the plasmid pNLRLuc. Transfections were performed using the LipofectAMINE PLUS kit from Invitrogen (Carlsbad, Calif.) according to the manufacturer and the virus generated was titered in MT-2 cells. For susceptibility analyses, the titrated virus was used to infect MT-2 cells in the presence of compound, and after 5 days of incubation, cells were processed and quantitated for virus growth by the amount of expressed luciferase. Assay media was RPMI 1640 supplemented with 10% heat inactivated fetal bovine serum (FBS), 100 units/ml penicillin G/100 units/ml streptomycin, 10 mM HEPES buffer pH 7.55 and 2 mM L-glutamine. The results from at least 2 experiments were used to calculate the EC50 values. Luciferase was quantitated using the Dual Luciferase kit from Promega (Madison, Wis.). Susceptibility of viruses to compounds was determined by incubation in the presence of serial dilutions of the compound. The 50% effective concentration (EC50) was calculated by using the exponential form of the median effect equation where (Fa)=1/[1+(ED50/drug conc.)^m](Johnson V A, Byington R T. Infectivity Assay. In Techniques in HIV Research. ed. Aldovini A, Walker B D. 71-76. New York: Stockton Press. 1990). Activity equal to A refers to a compound having an EC50≤100 nM, while B and C denote compounds having an EC50 between 100 nM and 1 uM (B) or >1 uM (C).

Row | Compound | EC50 (read-out: Activity) [µM] | EC50 (read-out: EC50 μM) [µM]
1 | Cc1cc(CNCc2ccc(-c3c(C)nc(C)c([C@H](OC(C)(C)C)C(=O)O)c3N3CCC(C)(C)CC3)cc2)ccc1F [Example 1, (S)-2-(tert-Butoxy)-2-(4-(4,4-dimethylpiperidin-1-yl)-5-(4-(((4-fluoro-3-methylbenzyl)amino)methyl)phenyl)-2,6-dimethylpyridin-3-yl)acetic acid] | < 0.1 | 0.013
2 | COC(=O)c1ccc(CNCc2ccc(-c3c(C)nc(C)c([C@H](OC(C)(C)C)C(=O)O)c3N3CCC(C)(C)CC3)cc2)cc1 [Example 18, (S)-2-(tert-butoxy)-2-(4-(4,4-dimethylpiperidin-1-yl)-5-(4-(((4-(methoxycarbonyl)benzyl)amino)methyl)phenyl)-2,6-dimethylpyridin-3-yl)acetic acid] | 0.1 to 1 | 0.228
3 | Cc1nc(C)c([C@H](OC(C)(C)C)C(=O)O)c(N2CCC(C)(C)CC2)c1-c1ccc(CN(Cc2ccc(F)cc2)C(=O)c2cccs2)cc1 [Example 44, (S)-2-(tert-butoxy)-2-(4-(4,4-dimethylpiperidin-1-yl)-5-(4-((N-(4-fluorobenzyl)thiophene-2-carboxamido)methyl)phenyl)-2,6-dimethylpyridin-3-yl)acetic acid] | < 0.1 | 
4 | Cc1nc(C)c([C@H](OC(C)(C)C)C(=O)O)c(N2CCC(C)(C)CC2)c1-c1ccc(CN(Cc2ccc(F)cc2)C(=O)N2CCCC2)cc1 [Example 35, (S)-2-(tert-butoxy)-2-(4-(4,4-dimethylpiperidin-1-yl)-5-(4-((N-(4-fluorobenzyl)pyrrolidine-1-carboxamido)methyl)phenyl)-2,6-dimethylpyridin-3-yl)acetic acid] | < 0.1 | 
5 | CCC(=O)N(Cc1ccc(F)cc1)Cc1ccc(-c2c(C)nc(C)c([C@H](OC(C)(C)C)C(=O)O)c2N2CCC(C)(C)CC2)cc1 [Example 22, (S)-2-(tert-butoxy)-2-(4-(4,4-dimethylpiperidin-1-yl)-5-(4-((N-(4-fluorobenzyl)propionamido)methyl)phenyl)-2,6-dimethylpyridin-3-yl)acetic acid] | < 0.1 | 
6 | Cc1nc(C)c([C@H](OC(C)(C)C)C(=O)O)c(N2CCC(C)(C)CC2)c1-c1ccc(CN(Cc2ccc(F)cc2)C(=O)c2ccccc2F)cc1 [Example 27, (S)-2-(tert-butoxy)-2-(4-(4,4-dimethylpiperidin-1-yl)-5-(4-((2-fluoro-N-(4-fluorobenzyl)benzamido)methyl)phenyl)-2,6-dimethylpyridin-3-yl)acetic acid] | < 0.1 | 0.008
7 | Cc1nc(C)c([C@H](OC(C)(C)C)C(=O)O)c(N2CCC(C)(C)CC2)c1-c1ccc(CN(Cc2ccc(F)cc2)C(=O)C2CCC2)cc1 [Example 42, (S)-2-(tert-butoxy)-2-(4-(4,4-dimethylpiperidin-1-yl)-5-(4-((N-(4-fluorobenzyl)cyclobutanecarboxamido)methyl)phenyl)-2,6-dimethylpyridin-3-yl)acetic acid] | < 0.1 | 
8 | COc1ccccc1CCNCc1ccc(-c2c(C)nc(C)c([C@H](OC(C)(C)C)C(=O)O)c2N2CCC(C)(C)CC2)cc1 [Example 9, (S)-2-(tert-butoxy)-2-(4-(4,4-dimethylpiperidin-1-yl)-5-(4-(((2-methoxyphenethyl)amino)methyl)phenyl)-2,6-dimethylpyridin-3-yl)acetic acid] | < 0.1 | 
9 | Cc1nc(C)c([C@H](OC(C)(C)C)C(=O)O)c(N2CCC(C)(C)CC2)c1-c1ccc(CN(Cc2ccc(F)cc2)C(=O)c2ccc(C(F)(F)F)cc2)cc1 [Example 46, (S)-2-(tert-butoxy)-2-(4-(4,4-dimethylpiperidin-1-yl)-5-(4-((N-(4-fluorobenzyl)-4-(trifluoromethyl)benzamido)methyl)phenyl)-2,6-dimethylpyridin-3-yl)acetic acid] | < 0.1 | 0.016
10 | Cc1nc(C)c([C@H](OC(C)(C)C)C(=O)O)c(N2CCC(C)(C)CC2)c1-c1ccc(CN(Cc2ccc(F)cc2)C(=O)C2CC2)cc1 [Example 40, (S)-2-(tert-butoxy)-2-(4-(4,4-dimethylpiperidin-1-yl)-5-(4-((N-(4-fluorobenzyl)cyclopropanecarboxamido)methyl)phenyl)-2,6-dimethylpyridin-3-yl)acetic acid] | < 0.1 | 
11 | Cc1nc(C)c([C@H](OC(C)(C)C)C(=O)O)c(N2CCC(C)(C)CC2)c1-c1ccc(CNCCC(C)(C)C)cc1 [Example 6, (S)-2-(tert-butoxy)-2-(5-(4-(((3,3-dimethylbutyl)amino)methyl)phenyl)-4-(4,4-dimethylpiperidin-1-yl)-2,6-dimethylpyridin-3-yl)acetic acid] | 0.1 to 1 | 
12 | Cc1ccc(CNCc2ccc(-c3c(C)nc(C)c([C@H](OC(C)(C)C)C(=O)O)c3N3CCC(C)(C)CC3)cc2)cc1 [Example 16, (S)-2-(tert-butoxy)-2-(4-(4,4-dimethylpiperidin-1-yl)-2,6-dimethyl-5-(4-(((4-methylbenzyl)amino)methyl)phenyl)pyridin-3-yl)acetic acid] | < 0.1 | 
13 | Cc1nc(C)c([C@H](OC(C)(C)C)C(=O)O)c(N2CCC(C)(C)CC2)c1-c1ccc(CNCc2ccc(C(=O)O)cc2)cc1 [Example 19, (S)-4-(((4-(5-(tert-butoxy(carboxy)methyl)-4-(4,4-dimethylpiperidin-1-yl)-2,6-dimethylpyridin-3-yl)benzyl)amino)methyl)benzoic acid] | > 1 | 2.07
14 | Cc1nc(C)c([C@H](OC(C)(C)C)C(=O)O)c(N2CCC(C)(C)CC2)c1-c1ccc(CN(Cc2ccc(F)cc2)C(=O)COc2ccccc2)cc1 [Example 30, (S)-2-(tert-butoxy)-2-(4-(4,4-dimethylpiperidin-1-yl)-5-(4-((N-(4-fluorobenzyl)-2-phenoxyacetamido)methyl)phenyl)-2,6-dimethylpyridin-3-yl)acetic acid] | 0.1 to 1 | 0.118
15 | COc1cccc(C(=O)N(Cc2ccc(F)cc2)Cc2ccc(-c3c(C)nc(C)c([C@H](OC(C)(C)C)C(=O)O)c3N3CCC(C)(C)CC3)cc2)c1 [Example 37, (S)-2-(tert-butoxy)-2-(4-(4,4-dimethylpiperidin-1-yl)-5-(4-((N-(4-fluorobenzyl)-3-methoxybenzamido)methyl)phenyl)-2,6-dimethylpyridin-3-yl)acetic acid] | < 0.1 | 
16 | CON(Cc1ccc(F)cc1)Cc1ccc(-c2c(C)nc(C)c([C@H](OC(C)(C)C)C(=O)O)c2N2CCC(C)(C)CC2)cc1 [Example 10, (S)-2-(tert-butoxy)-2-(4-(4,4-dimethylpiperidin-1-yl)-5-(4-(((4-fluorobenzyl)(methoxy)amino)methyl)phenyl)-2,6-dimethylpyridin-3-yl)acetic acid] | < 0.1 | 
17 | Cc1nc(C)c([C@H](OC(C)(C)C)C(=O)O)c(N2CCC(C)(C)CC2)c1-c1ccc(CN(Cc2ccc(F)cc2)S(C)(=O)=O)cc1 [Example 34, (S)-2-(tert-butoxy)-2-(4-(4,4-dimethylpiperidin-1-yl)-5-(4-((N-(4-fluorobenzyl)methylsulfonamido)methyl)phenyl)-2,6-dimethylpyridin-3-yl)acetic acid] | < 0.1 | 
18 | CCOC(=O)N(Cc1ccc(F)cc1)Cc1ccc(-c2c(C)nc(C)c([C@H](OC(C)(C)C)C(=O)O)c2N2CCC(C)(C)CC2)cc1 [Example 33, (S)-2-(tert-butoxy)-2-(4-(4,4-dimethylpiperidin-1-yl)-5-(4-(((ethoxycarbonyl)(4 fluorobenzyl)amino)methyl)phenyl)-2,6-dimethylpyridin-3-yl)acetic acid] | < 0.1 | 
19 | Cc1nc(C)c([C@H](OC(C)(C)C)C(=O)O)c(N2CCC(C)(C)CC2)c1-c1ccc(CN(Cc2ccc(F)cc2)C(=O)C(C)(C)C)cc1 [Example 25, (S)-2-(tert-butoxy)-2-(4-(4,4-dimethylpiperidin-1-yl)-5-(4-((N-(4-fluorobenzyl)pivalamido)methyl)phenyl)-2,6-dimethylpyridin-3-yl)acetic acid] | < 0.1 | 
20 | Cc1nc(C)c([C@H](OC(C)(C)C)C(=O)O)c(N2CCC(C)(C)CC2)c1-c1ccc(CNCc2ccccc2)cc1 [Example 14, (S)-2-(5-(4-((benzylamino)methyl)phenyl)-4-(4,4-dimethylpiperidin-1-yl)-2,6-dimethylpyridin-3-yl)-2-(tert-butoxy)acetic acid] | < 0.1 | 
21 | Cc1nc(C)c([C@H](OC(C)(C)C)C(=O)O)c(N2CCC(C)(C)CC2)c1-c1ccc(CN(Cc2ccc(F)cc2)C(=O)C(C)C)cc1 [Example 23, (S)-2-(tert-butoxy)-2-(4-(4,4-dimethylpiperidin-1-yl)-5-(4-((N-(4-fluorobenzyl)isobutyramido)methyl)phenyl)-2,6-dimethylpyridin-3-yl)acetic acid] | < 0.1 | 
22 | Cc1nc(C)c([C@H](OC(C)(C)C)C(=O)O)c(N2CCC(C)(C)CC2)c1-c1ccc(CN(Cc2ccc(F)cc2)C(=O)C2CCCC2)cc1 [Example 20, (S)-2-(tert-butoxy)-2-(4-(4,4-dimethylpiperidin-1-yl)-5-(4-((N-(4-fluorobenzyl)cyclopentanecarboxamido)methyl)phenyl)-2,6-dimethylpyridin-3-yl)acetic acid] | < 0.1 | 
